Experimental data taken from US20250269000A1, “ANTI-TUMOUR RESPONSES TO CYTOKERATINS” (SCANCELL LIMITED, priority 2020, published 2025).
Where a SMILES comes first, the peptide text is derived from it. [ ]: non-standard residue; d: D form. Cit = NC(=O)NCCC[C@H](N)C(=O)O

Test system: B16 tumour cells
Experiment: Tumour challenge, B16 in C57BL/6 mice
Assay type: in vivo, mouse
Conditions: immunised tumour bearing C57BL/6 mice
Experimental: C57BL/6 were challenged with B16 tumour (parental non-transfected cell line). Four days later the C57BL/6 mice were immunised with Cyk8 8-26 cit peptide. Overall survival (A), tumour volume (B) at day 13 and tumour volume throughout the study (C), post tumour implant are shown for unimmunised control mice and mice immunised with Cyk8 8-26 cit peptide. Statistical differences between immunised and control mice were determined by Mantel-Cox test, p values are shown. The tumour volume medians and p values are shown as determined by Mann Whitney U test, n=10 in all group.
For tumour challenge experiments, mice were challenged with 1×10^5 B16 HHDII/iDP4 cells subcutaneously on the right flank […] before primary immunisation (unless stated otherwise) and then immunised as described above. Tumour growth was monitored at 3-4 days intervals and mice humanely euthanised once tumour reached ≥10 mm in diameter.
The effect of immunisation with Cyk8 8-26 cit on the growth of the mouse B16 melanoma cell line was assessed in C57BL/6. Mice were challenged with B16 tumour cells 3 days prior to immunisation with Cyk8 8-26 cit.

CC(C)[C@H](NC(=O)[C@H](CCCCN)NC(=O)[C@H](Cc1ccc(O)cc1)NC(=O)[C@H](CO)NC(=O)[C@@H](N)CCCCN)C(=O)N[C@@H](CO)C(=O)N[C@H](C(=O)N[C@@H](CO)C(=O)NCC(=O)N1CCC[C@H]1C(=O)N[C@@H](CCCNC(N)=O)C(=O)N[C@@H](C)C(=O)N[C@@H](Cc1ccccc1)C(=O)N[C@@H](CO)C(=O)N[C@@H](CO)C(=O)N[C@@H](CCCNC(N)=O)C(=O)N[C@@H](CO)C(=O)N[C@@H](Cc1ccc(O)cc1)C(=O)N[C@H](C(=O)O)[C@@H](C)O)[C@@H](C)O [Cyk8 8-26 cit, KSYKVSTSGP-cit-AFSS-cit-SYT] (H-KSYKVSTSGP[Cit]AFSS[Cit]SYT-OH)
associated toxicity: no associated toxicity
